Reference: US4401659A, “Muramyl-peptides fixed to peptide-polymers and pharmaceutical compositions containing them” (Agence National de Valorisation de la Recherche (ANVAR), priority 1979, dated 1983)

Columns and labels:
Klebsiella = experiment: Anti-infectious activity with respect to Klebsiella, young mice of 7 days, s.c. treatment and s.c. infection; assay type: in vivo; conditions: for Number of survivors at D + 8: controls 0 of 53; for Number of survivors at D + 5: controls 1 of 53; for Number of survivors at D + 3: controls 5 of 53
Protocol: In these trials, the product studied was administered, by the sub-cutaneousroute, 24 hours before the infecting test. For the latter, the infecting dose was 1.2.10^3 Klebsiella; it was also administered by the sub-cutaneous route.

Klebsiella pneumoniae = experiment: Anti-infectious activity with respect to Klebsiella, mice treated i.v. 24 hours before i.m. inoculation; assay type: in vivo; conditions: for Number of survivors at D + 8: controls 4 of 32; for Number of survivors at D + 5: controls 7 of 32; for Number of survivors at D + 3: controls 16 of 32; for Percentage of protection: difference in percentages of survivors versus control group
Text: The testing procedure is described in the article of CHEDID L. and Col., Proc. Natl. Acad. Sci. USA, 1977, 74, 2089.
It was shown that a dose of about 10^4 Klebsiella pneumoniae, injected by the intramuscular route in mice, results in the progressive death of a considerable part, if not the whole, of the animals in the week following the inoculation. After eight days, the survival of the animals was definitely achieved.
The survival of groups of mice inoculated under the above-indicated conditions and treated by means of the products according to the invention, was recorded.
For these trials, hybrid mice (C57Bl/6 x AKR)F1 raised in the PASTEUR […], from strains derived from the C.N.R.S. breeding station at ORLEANS were used.
The infection by Klebsiella pneumoniae, a strain of the 2-capsular type, biotype d, was done from a culture of 16 hours in a medium for pneumococci (No. 53515, […] PASTEUR). The infecting dose was 1.5.10^4 Klebsiella; it was administered by the intramuscular route.
The administration of the tested product was carried out by the intravenous route in 0.2 ml of apyrogenic physiological solution, the controls receiving the solution alone. It was carried out 24 hours before the inoculation.
The percentage of protection indicated is the difference in the percentages of survivors of the treated group with respect to the control group.

[1] = Sensitisation trials: plantar injection in IFA or CFA, dermal injection three weeks later
Protocol: These trials were undertaken to study the possible immunogenic properties of the products according to the invention. At the same time, sensitisation tests with respect to various products were carried out.
The tests were carried out on guinea-pigs. The preparations shown in column 1 of the Table of the results were injected by the plantar route. They comprise 100 μg of the product tested incorporated in incomplete FREUND adjuvant (IFA) or in complete FREUND adjuvant (CFA).
Three weeks after this first injection, 50 μg of the products indicated in the upper portion of the Table of results were injected by the dermal route. Possible reactions were observed 48 hours later.

[2] = s.c. at D-1, 1 μg, 39 young mice
[3] = s.c. at D-1, 10 μg, 75 young mice
[4] = i.v. at D-1, 1 μg (weight of glycopeptide), 24 mice
[5] = i.v. at D-1, 10 μg (weight of glycopeptide), 32 mice

Substance: multi-[poly-(N-acetyl-muramyl-D-alanyl-D-isoglutaminyl)-D,L-alanyl]-poly-L-lysine [MDP(D-D)(A--L)]
- Number of survivors at D + 8 (Klebsiella; [2]): 3
- Number of survivors at D + 5 (Klebsiella; [2]): 6
- Number of survivors at D + 3 (Klebsiella; [2]): 19
- Number of survivors at D + 8 (Klebsiella; [3]): 18
- Number of survivors at D + 5 (Klebsiella; [3]): 28
- Number of survivors at D + 3 (Klebsiella; [3]): 50
- Number of survivors at D + 8 (Klebsiella pneumoniae; [4]): 6
- Number of survivors at D + 5 (Klebsiella pneumoniae; [4]): 7
- Number of survivors at D + 3 (Klebsiella pneumoniae; [4]): 15
- Percentage of protection (Klebsiella pneumoniae; [4]): 9%
- Number of survivors at D + 8 (Klebsiella pneumoniae; [5]): 17
- Number of survivors at D + 5 (Klebsiella pneumoniae; [5]): 19
- Number of survivors at D + 3 (Klebsiella pneumoniae; [5]): 26
- Percentage of protection (Klebsiella pneumoniae; [5]): 38%
- adjuvant to specific immunity ([1]; administered with ovalbumin): is not adjuvant to specific immunity
- sensitivity reaction with respect to itself and to adjuvant agents like MDP ([1]; guinea-pigs): does not elicit a sensitivity reaction
